Assays:
Test in all cases: biochemical
Design in all cases: KINOMEscan active-site-directed competition binding panel, 468 kinases, percent of DMSO control at 1 uM
Conditions in all cases: KINOMEscan binding, percent of DMSO control; read-out: Ctrl%
[1] = biological target: SRC (Homo sapiens, UniProt P12931)
[2] = biological target: ERBB2 (Homo sapiens, UniProt P04626)
[3] = biological target: CSNK1G3 (Homo sapiens, UniProt Q9Y6M4)
[4] = biological target: LRRK2(G2019S) (Homo sapiens, UniProt Q5S007, G2019S)
[5] = biological target: T1, PYK2 (Homo sapiens, UniProt Q14289)
T1 construct: gene PTK2B

[6] = biological target: STK35 (Homo sapiens, UniProt Q8TDR2)
[7] = biological target: EPHB6 (Homo sapiens, UniProt O15197)
[8] = biological target: MARK4 (Homo sapiens, UniProt Q96L34)
[9] = biological target: CAMK1D (Homo sapiens, UniProt Q8IU85)
[10] = biological target: INSR (Homo sapiens, UniProt P06213)
[11] = biological target: T2, MEK6 (Homo sapiens, UniProt P52564)
T2 construct: gene MAP2K6

[12] = biological target: CDK7 (Homo sapiens, UniProt P50613)
[13] = biological target: T3, p38-alpha (Homo sapiens, UniProt Q16539)
T3 construct: gene MAPK14

[14] = biological target: T4, DCAMKL2 (Homo sapiens, UniProt Q8N568)
T4 construct: gene DCLK2

[15] = biological target: BMPR2 (Homo sapiens, UniProt Q13873)
[16] = biological target: DAPK1 (Homo sapiens, UniProt P53355)
[17] = biological target: PHKG2 (Homo sapiens, UniProt P15735)
[18] = biological target: T5, JAK3(JH1domain-catalytic) (Homo sapiens, UniProt P52333)
T5 construct: JH1domain-catalytic

[19] = biological target: T6, LOK (Homo sapiens, UniProt O94804)
T6 construct: gene STK10

[20] = biological target: T7, VPS34 (Homo sapiens, UniProt Q8NEB9)
T7 construct: gene PIK3C3

[21] = biological target: MYO3B (Homo sapiens, UniProt Q8WXR4)
[22] = biological target: AAK1 (Homo sapiens, UniProt Q2M2I8)
[23] = biological target: BLK (Homo sapiens, UniProt P51451)
[24] = biological target: T8, RSK1(Kin.Dom.1-N-terminal) (Homo sapiens, UniProt Q15418)
T8 construct: gene RPS6KA1; Kin.Dom.1-N-terminal

T3 sequence (Q16539 whole entry): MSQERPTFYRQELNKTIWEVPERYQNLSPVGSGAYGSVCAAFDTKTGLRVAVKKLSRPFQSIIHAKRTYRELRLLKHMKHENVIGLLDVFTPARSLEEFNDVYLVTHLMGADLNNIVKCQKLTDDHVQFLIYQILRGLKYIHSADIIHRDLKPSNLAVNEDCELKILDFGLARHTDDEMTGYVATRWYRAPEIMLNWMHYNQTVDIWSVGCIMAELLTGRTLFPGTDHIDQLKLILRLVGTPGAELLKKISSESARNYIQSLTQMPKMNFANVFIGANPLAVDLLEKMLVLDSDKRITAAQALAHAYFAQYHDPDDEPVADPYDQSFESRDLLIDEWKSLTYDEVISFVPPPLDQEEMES
Sequence of CDK7 (P50613 whole entry): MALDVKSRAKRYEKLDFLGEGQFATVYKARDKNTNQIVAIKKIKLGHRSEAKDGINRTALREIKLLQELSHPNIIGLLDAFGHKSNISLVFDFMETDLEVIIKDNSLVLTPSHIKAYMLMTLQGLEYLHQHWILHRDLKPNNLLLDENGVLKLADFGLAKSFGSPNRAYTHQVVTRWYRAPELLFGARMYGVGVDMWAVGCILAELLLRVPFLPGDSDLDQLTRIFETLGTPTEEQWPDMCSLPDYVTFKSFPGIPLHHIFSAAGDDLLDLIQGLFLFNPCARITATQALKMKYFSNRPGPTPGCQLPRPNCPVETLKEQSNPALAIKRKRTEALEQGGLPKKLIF
T7 sequence (Q8NEB9 whole entry): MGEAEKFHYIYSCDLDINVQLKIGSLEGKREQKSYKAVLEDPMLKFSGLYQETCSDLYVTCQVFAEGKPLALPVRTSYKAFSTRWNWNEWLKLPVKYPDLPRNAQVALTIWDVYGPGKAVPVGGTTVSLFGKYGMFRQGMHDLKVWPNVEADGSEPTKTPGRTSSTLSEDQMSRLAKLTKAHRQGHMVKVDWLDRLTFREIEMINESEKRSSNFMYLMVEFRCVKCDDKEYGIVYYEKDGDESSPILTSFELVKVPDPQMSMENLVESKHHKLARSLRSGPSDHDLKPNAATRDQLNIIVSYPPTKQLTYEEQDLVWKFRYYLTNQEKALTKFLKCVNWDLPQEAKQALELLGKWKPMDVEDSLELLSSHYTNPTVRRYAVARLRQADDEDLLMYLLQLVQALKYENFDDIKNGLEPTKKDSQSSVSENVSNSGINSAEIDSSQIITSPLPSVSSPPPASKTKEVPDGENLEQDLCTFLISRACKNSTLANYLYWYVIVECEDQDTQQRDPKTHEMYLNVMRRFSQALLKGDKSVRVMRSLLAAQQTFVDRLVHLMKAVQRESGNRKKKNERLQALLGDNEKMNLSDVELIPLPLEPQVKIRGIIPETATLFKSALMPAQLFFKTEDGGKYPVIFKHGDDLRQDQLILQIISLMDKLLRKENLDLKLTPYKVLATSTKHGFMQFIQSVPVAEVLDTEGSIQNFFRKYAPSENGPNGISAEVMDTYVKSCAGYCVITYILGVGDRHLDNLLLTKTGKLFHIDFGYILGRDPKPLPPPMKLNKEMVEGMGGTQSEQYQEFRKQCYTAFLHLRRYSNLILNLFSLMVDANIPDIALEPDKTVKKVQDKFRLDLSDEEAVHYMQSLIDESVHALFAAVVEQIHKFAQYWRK
Sequence of INSR (P06213 whole entry): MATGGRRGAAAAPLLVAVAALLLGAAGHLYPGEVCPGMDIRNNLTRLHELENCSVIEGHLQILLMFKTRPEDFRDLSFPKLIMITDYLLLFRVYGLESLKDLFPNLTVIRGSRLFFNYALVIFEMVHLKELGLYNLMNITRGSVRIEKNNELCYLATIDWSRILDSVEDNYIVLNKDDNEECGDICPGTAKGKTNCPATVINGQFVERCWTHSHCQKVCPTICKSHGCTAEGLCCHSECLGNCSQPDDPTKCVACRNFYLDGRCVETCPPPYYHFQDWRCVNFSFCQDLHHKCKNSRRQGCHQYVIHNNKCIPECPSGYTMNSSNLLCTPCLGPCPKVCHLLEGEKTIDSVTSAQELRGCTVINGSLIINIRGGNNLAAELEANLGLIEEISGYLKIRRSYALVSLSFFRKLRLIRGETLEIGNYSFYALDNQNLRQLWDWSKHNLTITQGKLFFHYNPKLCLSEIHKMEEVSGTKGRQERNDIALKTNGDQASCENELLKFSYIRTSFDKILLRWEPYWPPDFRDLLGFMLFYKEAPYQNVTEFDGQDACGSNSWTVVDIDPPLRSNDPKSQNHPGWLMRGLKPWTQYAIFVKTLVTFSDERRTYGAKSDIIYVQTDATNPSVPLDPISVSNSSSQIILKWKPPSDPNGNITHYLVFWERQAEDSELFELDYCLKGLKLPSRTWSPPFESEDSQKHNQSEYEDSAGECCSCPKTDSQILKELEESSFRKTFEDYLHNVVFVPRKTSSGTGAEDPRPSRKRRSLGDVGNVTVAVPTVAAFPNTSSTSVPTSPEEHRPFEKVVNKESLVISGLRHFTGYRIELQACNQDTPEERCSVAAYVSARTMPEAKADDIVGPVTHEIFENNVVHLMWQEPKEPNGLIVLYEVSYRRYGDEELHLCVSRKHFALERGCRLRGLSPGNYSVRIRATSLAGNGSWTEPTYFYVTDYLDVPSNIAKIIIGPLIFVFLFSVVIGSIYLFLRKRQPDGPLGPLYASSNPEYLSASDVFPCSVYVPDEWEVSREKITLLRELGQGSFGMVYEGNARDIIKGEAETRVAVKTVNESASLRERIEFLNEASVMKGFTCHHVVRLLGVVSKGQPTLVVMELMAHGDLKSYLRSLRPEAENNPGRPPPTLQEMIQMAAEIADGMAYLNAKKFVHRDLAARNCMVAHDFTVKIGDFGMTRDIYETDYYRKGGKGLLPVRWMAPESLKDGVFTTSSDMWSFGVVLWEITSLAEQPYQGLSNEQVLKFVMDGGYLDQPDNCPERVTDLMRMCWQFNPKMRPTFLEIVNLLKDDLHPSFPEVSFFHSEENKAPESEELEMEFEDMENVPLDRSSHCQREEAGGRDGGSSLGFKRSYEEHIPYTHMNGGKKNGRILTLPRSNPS
Sequence of MYO3B (Q8WXR4 whole entry): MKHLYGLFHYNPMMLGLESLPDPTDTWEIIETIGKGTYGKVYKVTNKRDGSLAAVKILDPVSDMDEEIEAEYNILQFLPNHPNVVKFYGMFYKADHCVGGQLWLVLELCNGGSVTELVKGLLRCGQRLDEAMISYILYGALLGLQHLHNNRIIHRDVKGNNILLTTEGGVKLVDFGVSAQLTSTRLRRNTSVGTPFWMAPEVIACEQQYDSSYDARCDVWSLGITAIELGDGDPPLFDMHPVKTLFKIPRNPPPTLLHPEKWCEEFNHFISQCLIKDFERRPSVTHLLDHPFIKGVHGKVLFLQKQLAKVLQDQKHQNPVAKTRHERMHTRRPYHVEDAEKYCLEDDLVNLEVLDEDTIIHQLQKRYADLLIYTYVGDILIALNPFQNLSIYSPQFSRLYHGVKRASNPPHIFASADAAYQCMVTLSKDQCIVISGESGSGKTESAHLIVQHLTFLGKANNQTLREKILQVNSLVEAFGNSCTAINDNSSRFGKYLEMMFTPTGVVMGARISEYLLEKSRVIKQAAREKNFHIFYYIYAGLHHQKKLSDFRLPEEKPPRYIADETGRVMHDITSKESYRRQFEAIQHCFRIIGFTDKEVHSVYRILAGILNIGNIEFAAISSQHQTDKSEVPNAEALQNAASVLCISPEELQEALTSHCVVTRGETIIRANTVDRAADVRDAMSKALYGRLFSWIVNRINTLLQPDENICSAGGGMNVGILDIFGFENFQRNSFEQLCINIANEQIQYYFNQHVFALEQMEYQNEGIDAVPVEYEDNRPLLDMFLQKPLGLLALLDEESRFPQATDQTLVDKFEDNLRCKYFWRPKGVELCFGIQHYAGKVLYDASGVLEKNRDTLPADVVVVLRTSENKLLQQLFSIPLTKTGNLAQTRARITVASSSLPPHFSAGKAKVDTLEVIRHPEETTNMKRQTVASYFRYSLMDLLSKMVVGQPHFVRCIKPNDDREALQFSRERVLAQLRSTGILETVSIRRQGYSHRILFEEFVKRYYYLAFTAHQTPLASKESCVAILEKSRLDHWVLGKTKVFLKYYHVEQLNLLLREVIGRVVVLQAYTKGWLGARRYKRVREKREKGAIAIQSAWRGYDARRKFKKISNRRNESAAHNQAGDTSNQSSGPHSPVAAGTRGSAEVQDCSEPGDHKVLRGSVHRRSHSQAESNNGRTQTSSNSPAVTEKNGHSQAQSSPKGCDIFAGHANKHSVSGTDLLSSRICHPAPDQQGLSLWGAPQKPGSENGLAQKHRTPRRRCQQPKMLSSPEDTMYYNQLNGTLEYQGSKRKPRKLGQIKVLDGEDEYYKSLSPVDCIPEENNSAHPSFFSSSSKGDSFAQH
Sequence of PHKG2 (P15735 whole entry): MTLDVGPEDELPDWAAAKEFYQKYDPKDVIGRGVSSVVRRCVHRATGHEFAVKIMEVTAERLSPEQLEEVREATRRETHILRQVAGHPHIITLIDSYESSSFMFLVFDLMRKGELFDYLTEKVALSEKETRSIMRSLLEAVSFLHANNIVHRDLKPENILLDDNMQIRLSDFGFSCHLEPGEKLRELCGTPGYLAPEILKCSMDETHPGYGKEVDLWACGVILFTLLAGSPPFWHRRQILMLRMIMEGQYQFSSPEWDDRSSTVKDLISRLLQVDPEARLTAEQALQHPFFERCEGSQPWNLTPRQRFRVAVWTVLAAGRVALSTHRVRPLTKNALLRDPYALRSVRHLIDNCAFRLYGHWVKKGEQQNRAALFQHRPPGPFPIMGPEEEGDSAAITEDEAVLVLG
T2 sequence (P52564 whole entry): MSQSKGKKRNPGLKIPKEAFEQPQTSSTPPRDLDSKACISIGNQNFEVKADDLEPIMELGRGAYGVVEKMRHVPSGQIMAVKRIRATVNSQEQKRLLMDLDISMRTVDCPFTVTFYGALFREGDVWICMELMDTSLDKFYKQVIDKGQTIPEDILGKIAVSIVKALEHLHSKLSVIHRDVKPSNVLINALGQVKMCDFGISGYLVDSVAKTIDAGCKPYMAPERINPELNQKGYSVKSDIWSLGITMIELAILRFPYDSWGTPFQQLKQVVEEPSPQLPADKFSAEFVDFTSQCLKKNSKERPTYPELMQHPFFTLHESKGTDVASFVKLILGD

## Cc1ccc(NC(=O)c2cccc(C(F)(F)F)c2)cc1Nc1cc(-c2cccnc2)nc2[nH]ccc12 [HZX-02-059]
[1]
  remaining binding at 1 µM: 78%
[2]
  remaining binding at 1 µM: 95%
[3]
  remaining binding at 1 µM: 100%
[4]
  remaining binding at 1 µM: 92%
[5]
  remaining binding at 1 µM: 100%
[6]
  remaining binding at 1 µM: 80%
[7]
  remaining binding at 1 µM: 42%
[8]
  remaining binding at 1 µM: 100%
[9]
  remaining binding at 1 µM: 100%
[10]
  remaining binding at 1 µM: 100%
[11]
  remaining binding at 1 µM: 88%
[12]
  remaining binding at 1 µM: 69%
[13]
  remaining binding at 1 µM: 77%
[14]
  remaining binding at 1 µM: 96%
[15]
  remaining binding at 1 µM: 100%
[16]
  remaining binding at 1 µM: 93%
[17]
  remaining binding at 1 µM: 92%
[18]
  remaining binding at 1 µM: 100%
[19]
  remaining binding at 1 µM: 47%
[20]
  remaining binding at 1 µM: 79%
[21]
  remaining binding at 1 µM: 97%
[22]
  remaining binding at 1 µM: 87%
[23]
  remaining binding at 1 µM: 91%
[24]
  remaining binding at 1 µM: 72%

Source: publication PMC8799717, “Pharmacological targeting PIKfyve and tubulin as an effective treatment strategy for double-hit lymphoma” (Cell Death Discovery, 2022)
